Source: patent US11478526B2, “Methods of reducing neuroinflammation or toxicity induced by amyloid beta (abeta) using glucocorticoid induced leucine zipper (GILZ) analog peptides” (INDIANA UNIVERSITY RESEARCH AND TECHNOLOGY CORPORATION, priority 2016, dated 2022)
Where two headings read alike, the source gives them in different places.

Tests used:
[1] = tested on: LPS induced neuroinflammation; assay: LPS induced neuroinflammation: real time PCR of brain tissue; assay type: in vivo, mouse; conditions: 25 mg/kg i.v. alternate days, day 7
Experimental: Animals and lipopolysaccharide induced neuroinflammation: Male C57/6J mice weighing 32 to 37 grams were housed five per cage at a temperature of 22±2° C. with 12 hour light/12 hour dark cycles with free access to laboratory food and water. Lipopolysaccharides (LPS) from Escherichia coli 026:B6, =10,000 EU/mg, purified by phenol extraction was purchased from Sigma (Sigma Aldrich, Mo., USA). The mice were randomly divided into seven groups: LPS, LPS+GA-1 or GA-2 or CP-1 or CP-2 or CP-3 or TAT. The LPS was administered intraperitoneally at […] in 100 μl of sterile saline followed by corn oil in the morning daily for six days. The GA or CP was administered intravenously at 25 mg/kg in 100 μl of sterile saline on alternate days. Additional control group included mice receiving saline alone. All animals were sacrificed on day 7.
Real time polymerase chain reaction. Total cellular RNA was isolated from each brain tissue using Qiagen kit (Invitrogen, Carlsbad, Calif.) following manufacturer's protocol and reverse transcribed using iScript cDNA synthesis kit (Biorad, Calif.). Equal amount of cDNA measured by the Nanodrop (ThermoFisher Scientific, Waltham, USA) was used for amplification of IL-1β, IL-12, CD14, BclXL and Bcl2. Real time PCR was performed using SYBR green/ROX qPCR master mix (SA Biosciences, Frederick, Md.) on the ABI Prism 7000 sequence detection system (Applied Biosystem, Foster City, Calif., USA). Each reaction contains 2×12.5 μl of master mix, 1 μl of 10 μM of primers and 50 ng of the cDNA, to a total volume of 25 μl. The thermal cycling conditions included an initial denaturation step at 50° C. for 2 min, 95° C. for 3 min, 39 cycles at 95° C. for 30 s, annealing temperature at 62° C. for 30 s and extension at 72° C. for 30 s.
The gene specific threshold cycle (Ct) for each sample (ΔCt) was corrected by subtracting the Ct for the housekeeping gene β-actin. Untreated controls were chosen as the reference samples. The ΔCt for all experimental samples was subtracted by the ΔCt for the control samples (ΔΔCt).The difference in each gene specific threshold between the sample from vehicle treated and GA or CP treated cells was determined to obtain the relative change in the specific mRNA. The magnitude of change in the mRNA was expressed as 2^−ΔΔCt. Each measurement of a sample was performed in duplicates.

[2] = LD50 predicted from in-vitro IC50 by regression (Speilmann method); conditions: for LD50 estimated from IC50: Log (LD50)=0.506×(log IC50)+0.475, body weight; for LD50 (mM): score 1/0
Experimental: Lactate dehydrogenase (LDH) assay: To detect direct GA-induced cell lysis we performed LDH release assays (Roche Molecular Diagnostics). […] Approximately 5×10^4 U373 cells/well were cultured in 96-well plates in the presence of increasing concentrations of individual GA or control peptide from 0.5 μM to 500 μM. Cells treated with 2% triton-X 100 (Sigma Aldrich, St. Louis, Mo.) for 10 minutes served as positive control. Untreated cells served as controls for spontaneous LDH-release. Specific LDH-release was calculated according to the following formula: LDH-release %=100*(GA or control peptide treated cells—untreated cells)/(positive control-untreated cells). The IC50 values were extrapolated by logarithmic estimation. The LD50 in mg/kg was predicted using the formula, Log (LD50)=0.506×(log IC50)+0.475. […]

Aβ1-42 exposed HFB cells = assay: Cytokines in culture medium of Aβ1-42 exposed HFB; assay type: cell-based, human; conditions: PGA at IC50 concentration
U373 cells [3] = assay type: cell-based, human
Experimental: Lactate dehydrogenase (LDH) assay: To detect direct GA-induced cell lysis we performed LDH release assays (Roche Molecular Diagnostics). […] Approximately 5×10^4 U373 cells/well were cultured in 96-well plates in the presence of increasing concentrations of individual GA or control peptide from 0.5 μM to 500 μM. Cells treated with 2% triton-X 100 (Sigma Aldrich, St. Louis, Mo.) for 10 minutes served as positive control. Untreated cells served as controls for spontaneous LDH-release. Specific LDH-release was calculated according to the following formula: LDH-release %=100*(GA or control peptide treated cells—untreated cells)/(positive control-untreated cells). The IC50 values were extrapolated by logarithmic estimation. The LD50 in mg/kg was predicted using the formula, Log (LD50)=0.506×(log IC50)+0.475.
Effects of PGA on membrane integrity and apoptosis: The top five PGA were covalently synthesized with the cell penetrating TAT (transcriptional transactivation) peptide to facilitate intracellular delivery (Genescript, N.J.). Membrane integrity of U373 microglial cells exposed to increasing concentration of each PGA from 0.5 μm to 500 μM was assessed by the leakage of intracellular lactate dehydrogenase (LDH) into culture medium (Roche, Ind.).

HFNC = assay: Morphology of HFNC under inverted bright field microscope; assay type: cell-based, human
U373 cells [4] = assay: Annexin-V and propidium iodide apoptosis by flow cytometry; assay type: cell-based, human; conditions: score 1/0
Experimental: Detection apoptosis by flow cytometry: To further assess cell cytotoxicity, the apoptotic effects of individual GA or control peptide was evaluated by the Annexin-V and propidium iodide (PI) dual staining method (Annexin-V-Fluos staining kit, Roche Diagnostics, Mannheim, Germany). As opposed to apoptotic cells, necrotic cells with ruptured cell membrane take up PI, the DNA binding dye. Thus, cells which take up both fluorochromes are a mixture of apoptotic and necrotic cells, whereas cells that exclude PI but bind Annexin V are (early) apoptotic cells. U373 cells cultured with varying concentrations of individual GA or control peptide (0.5 μM to 50 μM) for 24 hours were centrifuged and suspended in 100 μl of Annexin V/PI labelling solution (20 μl each of Annexin-V-Fluos labelling reagent and PI in 1 ml of binding buffer) for 15 min at room temperature. After washing the cells were resuspended in PBS:1% paraformaldehyde and analyzed using a FACScan flow cytometer (BD Biosciences, San Jose, Calif.).

[5] = Example 9, PGA synthesized with TAT, read-out: IC50 of LDH release extrapolated from regression analysis
[6] = concentration stated for use in HFNC cultures, Example 11, read-out: IC50 concentration

Row | Substance | relative expression of BCl2 in brain tissues [1] | relative expression of BclXL in brain tissues [1] | steady-state mRNA for IL-1β in brain tissues [1] | LD50 estimated from IC50 [2] [mg/kg] | relative expression of CD14 mRNA in brain tissues [1] | AIL-1p concentration in culture supernatant (not shown) (Aβ1-42 exposed HFB cells) | AIL-6 concentration in culture supernatant (Aβ1-42 exposed HFB cells) | LD50 (mM) [2] | IC50 (U373 cells [3]; [5]) [µM] | IC50 (U373 cells [3]; [6]) [µM] | morphology of HFNC (HFNC) | % apoptosis at LD50 (U373 cells [4])
1 | Ac-EPAPESPQV-NH2 [GA-2] | 1.9+/−0.9 | 0.25+/−0.4 | decreased levels | 369.42 | – | – | – | – | – | – | – | –
2 | Ac-EPAPLAPYG-NH2 [GA-1] | 1.25+/−0.5 | 0.32+/−0.15 | decreased levels | 380.44 | 0.48+/−0.1 | – | – | – | – | – | – | –
3 | Ac-EPAPESPQV-NH2 [PGA-4] | – | – | – | 1693.87 | – | significantly lower | significantly lower | 1 (>100) | 1.5 | 102 | did not affect the morphology | 1 (<25)
4 | Ac-EPAPLAPYG-NH2 [PGA-2] | – | – | – | 1396.83 | – | significantly lower | significantly lower | 1 (>100) | 1.95 | 169 | did not affect the morphology | 1 (<25)
